From patent US9073926B2, “Heterocyclic compounds containing a pyrrolopyridine or benzimidazole core” (Boehringer Ingelheim International GmbH, priority 2009, dated 2015)

Target: Human RSK2 (Homo sapiens (Human), UniProt P51812)
Assay: Human RSK2 Assay (Kinase Glo Plus, residual ATP)
Type: biochemical
Conditions: 0.75 nM His-RSK2, 0.75 μM ATP, 1.0 μM S6 Kinase/RSK Substrate Peptide 1
Experimental: Experimental Method A: Human RSK2 Assay
Compounds are assessed for their ability to inhibit the phosphorylation of a substrate peptide by RSK2.
Human RSK2 protein, purchased from Invitrogen, is used to measure kinase activity utilizing Kinase Glo Plus (Promega) a homogeneous assay technology, which uses a luciferin-luciferase based ATP detection reagent to quantify residual ATP. The assay is performed using 0.75 nM His-RSK2, 0.75 μM ATP and 1.0 μM S6 Kinase/RSK Substrate Peptide 1 (Upstate, catalog #12-124), in assay buffer consisting of 25 mM HEPES, pH 7.5, 10 mM MgCl2, 5 mM MnCl2, 50 mM KCl, 0.2% BSA, 0.01% CHAPS, 100 μM Na3VO4, 0.5 mM DTT, and 1% DMSO. Solutions of test compounds at various concentrations are prepared by 1:3 fold serial dilution of a 1 mM solution of compound in DMSO. The DMSO solutions are further diluted with assay buffer to a final concentration of DMSO of 5%.
The assay is performed in a 384 well, white, non-binding plate (Corning, catalogue #3574). Solutions of test compounds (10 μL) are transferred to a dry assay plate, followed by addition of 20 μL kinase and 20 μL ATP+Substrate Peptide 1 described above. The kinase reaction mixture is incubated for 90 minutes at 28° C. followed by addition of 30 μL of ATP detection reagent for 15 minutes at room temperature. The relative light unit (RLU) signal is measured on a LJL Analyst (Molecular Devices) in luminescence mode using 384 aperture. The RLU signals were converted to percent of control (POC) values using the formula: POC=100*(BCTRL−Signal)/(BCTRL−PCTRL), where Signal is the test well RLU signal, BCTRL is the average of background (negative control), which consists of ATP+peptide and compound buffer, well signals on the plate, and PCTRL is the average of positive control, which consists of kinase, ATP+peptide, and compound buffer, well signals on the plate. For concentration-responsive compounds, POC as a function of test compound concentration are fitted to a 4-parameter logistic equation of the form: Y=A+(B−A)/[1+(x/C)^D], where A, B, C, and D are fitted parameters (parameter B is fixed at zero POC), and x and y are the independent and dependent variables, respectively. The IC50 (50% inhibitory concentration) is determined as the inflection point parameter, C. Experimental Method B: Human RSK2 Trans-Reporter Assay

Chain of Human RSK2 (P51812 whole entry): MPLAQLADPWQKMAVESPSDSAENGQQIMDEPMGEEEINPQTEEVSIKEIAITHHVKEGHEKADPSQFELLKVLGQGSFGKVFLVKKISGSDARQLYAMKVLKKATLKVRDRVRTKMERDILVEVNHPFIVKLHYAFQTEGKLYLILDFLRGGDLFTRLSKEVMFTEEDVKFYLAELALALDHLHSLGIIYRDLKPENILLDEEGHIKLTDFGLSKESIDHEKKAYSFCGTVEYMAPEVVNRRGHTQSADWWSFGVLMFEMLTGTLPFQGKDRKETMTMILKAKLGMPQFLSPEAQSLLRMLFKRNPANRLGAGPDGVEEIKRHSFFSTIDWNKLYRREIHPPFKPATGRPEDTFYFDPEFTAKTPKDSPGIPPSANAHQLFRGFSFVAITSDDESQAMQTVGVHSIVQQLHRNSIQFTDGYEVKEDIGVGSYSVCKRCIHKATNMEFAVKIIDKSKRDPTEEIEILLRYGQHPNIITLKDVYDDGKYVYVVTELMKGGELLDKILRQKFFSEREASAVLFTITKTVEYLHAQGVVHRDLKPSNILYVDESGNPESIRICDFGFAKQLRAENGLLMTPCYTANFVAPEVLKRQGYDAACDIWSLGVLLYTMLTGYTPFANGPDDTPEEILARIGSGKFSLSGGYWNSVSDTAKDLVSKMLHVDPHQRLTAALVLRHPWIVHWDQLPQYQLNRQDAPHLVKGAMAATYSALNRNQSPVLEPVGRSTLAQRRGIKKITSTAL

CC(C)c1cc(NC(=O)c2ccc3cc4n(c3n2)CC(C)(C)CNC4=O)no1 [Example 89, 9,9-dimethyl-6-oxo-N-[5-(propan-2-yl)-1,2-oxazol-3-yl]-7,8,9,10-tetrahydro-6H-pyrido[3′,2′:4,5]pyrrolo[1,2-a][1,4]diazepine-2-carboxamide]
IC50: 125 nM

C[C@H]1NC(=O)c2cc3ccc(C(=O)Nc4cnn(Cc5ccccc5)c4)nc3n2[C@H]1C (relative stereo) [Example 61, N-(1-benzyl-1H-pyrazol-4-yl)-cis-8,9-dimethyl-6-oxo-6,7,8,9-tetrahydropyrido[3′,2′:4,5]pyrrolo[1,2-a]pyrazine-2-carboxamide]
IC50: 0.34 nM

CCn1c(NC(=O)c2ccc3cc4n(c3n2)[C@@H](C)[C@H](C)NC4=O)nc2ccccc21 (relative stereo) [Example 74, N-(1-ethyl-1H-benzimidazol-2-yl)- trans-8,9-dimethyl-6-oxo-6,7,8,9-tetrahydropyrido[3′,2′:4,5]pyrrolo[1,2-a]pyrazine-2-carboxamide]
IC50: 1110 nM

Cn1c(NC(=O)c2ccc3cc4n(c3n2)CC(C)(C)CNC4=O)nc2ccccc21 [Example 52, 9,9-dimethyl-N-(1-methyl-1H-benzimidazol-2-yl)-6-oxo-7,8,9,10-tetrahydro-6H-pyrido[3′,2′:4,5]pyrrolo[1,2-a][1,4]diazepine-2-carboxamide]
IC50: 2500 nM

O=C(Nc1cnc2ccccc2c1)c1ccc2cc3n(c2n1)CCCNC3=O [Example 23, 6-oxo-N-(quinolin-3-yl)-7,8,9,10-tetrahydro-6H-pyrido[3′,2′:4,5]pyrrolo[1,2-a][1,4]diazepine-2-carboxamide]
IC50: 9.2 nM

CC(C)n1ncc2cc(NC(=O)c3ccc4cc5n(c4n3)CC(C)(C)CNC5=O)cnc21 [Example 31, 9,9-dimethyl-6-oxo-N-[1-(propan-2-yl)-1H-pyrazolo[3,4-b]pyridin-5-yl]-7,8,9,10-tetrahydro-6H-pyrido[3′,2′:4,5]pyrrolo[1,2-a][1,4]diazepine-2-carboxamide]
IC50: 105 nM

O=C(Nc1nc2cc(Cl)cc(CN3CCOCC3)c2[nH]1)c1ccc2cc3n(c2n1)CCCNC3=O [Example 49, N-[5-chloro-7-(morpholin-4-ylmethyl)-1H-benzimidazol-2-yl]-6-oxo-7,8,9,10-tetrahydro-6H-pyrido[3′,2′:4,5]pyrrolo[1,2-a][1,4]diazepine-2-carboxamide]
IC50: 6.7 nM

CC(C)n1ncc2cc(NC(=O)c3ccc4nc5n(c4c3)CCCNC5=O)cnc21 [Example 11, 1-oxo-N-[1-(propan-2-yl)-1H-pyrazolo[3,4-b]pyridin-5-yl]-2,3,4,5-tetrahydro-1H-[1,4]diazepino[1,2-a]benzimidazole-8-carboxamide]
IC50: 870 nM

C[C@@H]1CNC(=O)c2cc3ccc(C(=O)Nc4cc(Cc5ccccc5)on4)nc3n21 [Example 98, (9R)-N-(5-benzyl-1,2-oxazol-3-yl)-9-methyl-6-oxo-6,7,8,9-tetrahydropyrido[3′,2′:4,5]pyrrolo[1,2-a]pyrazine-2-carboxamide]
IC50: 3.9 nM

CNC(=O)c1csc(NC(=O)c2ccc3cc4n(c3n2)C(C)CNC4=O)n1 (stereo not drawn) [Example 102, 9-methyl-N-[4-(methylcarbamoyl)-1,3-thiazol-2-yl]-6-oxo-6,7,8,9-tetrahydropyrido[3′,2′:4,5]pyrrolo[1,2-a]pyrazine-2-carboxamide]
IC50: 130 nM

O=C(Nc1cccnc1)c1ccc2nc3n(c2c1)CCCNC3=O [Example 1, 1-oxo-N-(pyridin-3-yl)-2,3,4,5-tetrahydro-1H-[1,4]diazepino[1,2-a]benzimidazole-8-carboxamide]
IC50: 5600 nM

CCOC(=O)c1nc(NC(=O)c2ccc3cc4n(c3n2)CCCNC4=O)cn1C [Example 28, ethyl 1-methyl-4-{[(6-oxo-7,8,9,10-tetrahydro-6H-pyrido[3′,2′:4,5]pyrrolo[1,2-a][1,4]diazepin-2-yl)carbonyl]amino}-1H-imidazole-2-carboxylate]
IC50: 90 nM
